Source: patent publication US20260176289A1, “SMALL MOLECULE INHIBITORS OF KRAS PROTEINS” (Merck Sharp & Dohme LLC, priority 2022, published 2026)

Legend:
Format in all cases: biochemical
[1] = target: KRAS-WT (Homo sapiens, UniProt P01116); experiment: SOS-catalyzed nucleotide exchange assay (Procedure A, TR-FRET), KRAS-WT; details: nucleotide exchange, read-out: KRAS WT GNE IC50
From the text: (§1) Procedure for SOS-Catalyzed Nucleotide Exchange Assay for KRAS-WT, G12C/D/V, G13D, HRAS, and NRAS (Procedure A)
(§2) Recombinant KRAS-G12C protein used in this assay has an additional triple mutation (C51S/C80L/C118S). Whereas KRAS-WT, G12D/V, G13D, HRAS and NRAS are in context of their WT protein sequence background. Specifically, the SOS-catalyzed nucleotide exchange assay utilizes a preformed TR-FRET complex containing a specific biotinylated RAS protein (KRAS-WT, G12C/V/D, G13D, HRAS, NRAS; described above) with Bodipy-GDP, and Terbium-streptavidin. Compounds are preincubated with this complex for 60 minutes. Subsequently, recombinant human SOS protein and unlabeled GTP are added to initiate the exchange reaction. Small molecule inhibitors stabilize the Bodipy-GDP complex whereas the untreated protein rapidly exchanges Bodipy-GDP for unlabeled GTP resulting in reduced TR-FRET signal.
(§3) To assemble the preformed TR-FRET complexes, each biotinylated RAS protein is diluted to 2 μM in an EDTA Buffer (20 mM HEPES pH 7.5, 50 mM sodium chloride, 10 mM EDTA, and 0.01% Tween) and incubated at room temperature for one hour. This mixture is then further diluted to 90 nM in an Assay Buffer (20 mM HEPES pH 7.5, 150 mM sodium chloride, 10 mM magnesium chloride, and 0.005% Tween) containing 15 nM of Terbium-Streptavidin (Invitrogen, catalog #PV3577) and 900 nM of Bodipy-GDP (Invitrogen, catalog #G22360) and incubated at room temperature for six hours. It should be noted that this preformed TR-FRET complex for each of the RAS protein were made ahead of time, aliquoted and stored at −80° C. until the day of the experiment.
(§4) Each test compound (10 mM stock in DMSO) is diluted in DMSO to make a final-10-point, 3-fold dilution and is acoustically dispensed into a 384-well assay plate (Corning, catalog #3820) using an Echo 550 (Labcyte). Each well of the assay plate receives 3 μL of a specific 3×RAS preformed TR-FRET complex and 3 μL of Assay Buffer and is incubated at room temperature for 60 minutes (preincubation time). Each well then receives 3 μL of 3×recombinant human SOS protein and GTP (Sigma, G8877) in Assay Buffer and is incubated at room temperature for 30 minutes (G13D), 60 minutes (KRAS WT/G12C/D, H/NRAS) or 90 minutes for G12V. The final reaction in each well of 9 μL consists of 3 mM GTP, specific Ras and SOS proteins in the following concentrations: KRAS-G12C/SOS=3 nM/40 nM, KRAS-WT and G12D/SOS=1 nM/40 nM, KRAS-G12V/SOS=1.25 nM/160 nM. KRAS-G13D/SOS=1.25 nM/0 nM, HRAS and NRAS=1.25 nM/40 nM.
(§5) The time-resolved fluorescence resonance energy transfer (TR-FRET) signal is measured on an Envision (PerkinElmer) plate reader: Excitation filter=340 nm; emission 1=495 nm; emission2=520 nm; dichroic mirror=D400/D505; delay time=[…]. The signal of each well is determined as the ratio of the emission at 520 nm to that at 495 nm. Percent effect of each well is determined after normalization to control wells containing DMSO (no effect) or a saturating concentration of inhibitor (max effect). The apparent effect as a function of compound concentration is fit to a four-parameter logistic equation.

[2] = target: KRAS-G12D (Homo sapiens, UniProt P01116, G12D); experiment: SOS-catalyzed nucleotide exchange assay (Procedure A, TR-FRET), KRAS-G12D; details: nucleotide exchange, read-out: KRAS G12D GNE IC50
Chain of KRAS-G12D (P01116 with tags, fused parts or gaps isoform P01116-2 G12D): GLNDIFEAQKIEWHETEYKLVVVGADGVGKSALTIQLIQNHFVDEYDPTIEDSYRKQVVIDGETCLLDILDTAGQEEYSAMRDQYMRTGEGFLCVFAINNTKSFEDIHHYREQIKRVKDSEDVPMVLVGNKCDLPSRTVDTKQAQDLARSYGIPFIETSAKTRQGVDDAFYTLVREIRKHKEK
From the text: as §1, §2, §3, §4, §5

[3] = target: KRAS-G12V (Homo sapiens, UniProt P01116, G12V); experiment: SOS-catalyzed nucleotide exchange assay (Procedure A, TR-FRET), KRAS-G12V; details: nucleotide exchange, read-out: KRAS G12V GNE IC50
Chain of KRAS-G12V (P01116 with tags, fused parts or gaps isoform P01116-2 G12V): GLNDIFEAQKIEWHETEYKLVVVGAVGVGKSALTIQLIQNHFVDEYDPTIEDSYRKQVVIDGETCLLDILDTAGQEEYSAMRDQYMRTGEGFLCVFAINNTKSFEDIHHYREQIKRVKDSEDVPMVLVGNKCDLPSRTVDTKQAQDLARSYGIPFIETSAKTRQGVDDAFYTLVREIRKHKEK
From the text: as §1, §2, §3, §4, §5

Chain of KRAS-WT (P01116 with tags, fused parts or gaps isoform P01116-2): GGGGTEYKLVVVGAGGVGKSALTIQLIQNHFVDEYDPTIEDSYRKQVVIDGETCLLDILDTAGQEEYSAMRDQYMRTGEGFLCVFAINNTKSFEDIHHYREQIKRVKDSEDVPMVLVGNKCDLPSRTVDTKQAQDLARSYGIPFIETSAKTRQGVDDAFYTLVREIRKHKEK

IC50 [1] | IC50 [2] | IC50 [3] | SMILES
0.277 µM | 0.104 µM | 0.103 µM | Cc1cc2[nH]ncc2c(-c2nccc3c2sc2nc(OC[C@@]45CCCN4C[C@H](F)C5)nc(N4CCOC[C@@](C)(O)C4)c23)c1C(C)(C)C#N [Ex-154, 2-(4-(2-(((2R,7aS)-2-fluorotetrahydro-1H-pyrrolizin-7a(5H)-yl)methoxy)-4-((S)-6-hydroxy-6-methyl-1,4-oxazepan-4-yl)pyrido[4′,3′:4,5]thieno[2,3-d]pyrimidin-8-yl)-6-methyl-1H-indazol-5-yl)-2-methylpropanenitrile]
0.908 µM | 0.404 µM | 0.28 µM | C[C@@]1(O)COCCN(c2nc(OC[C@@]34CCCN3C[C@H](F)C4)nc3sc4c(-c5cccc(Cl)c5C5CC5)nccc4c23)C1 [Ex-122, (S)-4-(8-(3-chloro-2-cyclopropylphenyl)-2-(((2R,7aS)-2-fluorotetrahydro-1H-pyrrolizin-7a(5H)-yl)methoxy)pyri-do[4′,3′:4,5]thieno[2,3-d]pyrimidin-4-yl)-6-methyl-1,4-oxazepan-6-ol]
0.0399 µM | 0.0127 µM | 0.0215 µM | C=C1CN2CC(=C)CC2(COc2nc(N3CCOC[C@@](C)(O)C3)c3c(n2)sc2c(-c4c(C5CC5)c(Cl)cc5[nH]ncc45)nccc23)C1 [Ex-225, (6S)-4-(8-(6-chloro-5-cyclopropyl-1H-indazol-4-yl)-2-((2,6-dimethylene-tetrahydro-1H-pyrrolizin-7a(5H)-yl)methoxy)pyrido [4′,3′:4,5]thieno[2,3-d]pyrimidin-4-yl)-6-methyl-1,4-oxaze-pan-6-ol]
